According to the NIST ThermoML archive (doi:10.1021/je060271a):
Where “and” joins values, the source holds several entries; their conditions need not be identical. Equal values may be shown once. ± gives the expanded uncertainty stated by the source.

Conditions: 283.15 K, Liquid, Vibrating tube method

CCCCCC(=O)OCC(COC(=O)CCCCC)(COC(=O)CCCCC)COC(=O)CCCCC [pentaerythritol tetrahexanoate]
Conditions	mass density
147.5 kPa	1004.2 ± 1.2 kg/m3
147.8 kPa	1004.2 ± 1.2 kg/m3
148.2 kPa	1004.2 ± 1.2 kg/m3
148.7 kPa	1004.3 ± 1.2 kg/m3
150.5 kPa	1004.1 ± 1.2 kg/m3
150.8 kPa	1004.2 ± 1.2 kg/m3
151.3 kPa	1004.3 ± 1.2 kg/m3
151.5 kPa	1004.3 ± 1.2 kg/m3
151.7 kPa	1004.3 ± 1.2 kg/m3
152.4 kPa	1004.2 ± 1.2 kg/m3
152.7 kPa	1004.2 ± 1.2 kg/m3
153.2 kPa	1004.2 ± 1.2 kg/m3
153.4 kPa	1004.2 ± 1.2 kg/m3
153.7 kPa	1004.4 ± 1.2 kg/m3
154.1 kPa	1004.3 ± 1.2 kg/m3
154.3 kPa	1004.2 ± 1.2 kg/m3
154.6 kPa	1004.1 ± 1.2 kg/m3 and 1004.2 ± 1.2 kg/m3
155.1 kPa	1004.3 ± 1.2 kg/m3
155.7 kPa	1004.2 ± 1.2 kg/m3
156.4 kPa	1004.2 ± 1.2 kg/m3
156.5 kPa	1004.1 ± 1.2 kg/m3 and 1004.2 ± 1.2 kg/m3
157.2 kPa	1004.3 ± 1.2 kg/m3
157.6 kPa	1004.2 ± 1.2 kg/m3
157.7 kPa	1004.2 ± 1.2 kg/m3
157.9 kPa	1004.3 ± 1.2 kg/m3
160.5 kPa	1004.2 ± 1.2 kg/m3
161 kPa	1004.2 ± 1.2 kg/m3
161.4 kPa	1004.2 ± 1.2 kg/m3
161.6 kPa	1004.3 ± 1.2 kg/m3
162.3 kPa	1004.3 ± 1.2 kg/m3
162.4 kPa	1004.1 ± 1.2 kg/m3
163 kPa	1004.2 ± 1.2 kg/m3
163.1 kPa	1004.3 ± 1.2 kg/m3
163.8 kPa	1004.3 ± 1.2 kg/m3
164.2 kPa	1004.3 ± 1.2 kg/m3
164.5 kPa	1004.2 ± 1.2 kg/m3
164.7 kPa	1004.3 ± 1.2 kg/m3
165.2 kPa	1004.2 ± 1.2 kg/m3
165.7 kPa	1004.3 ± 1.2 kg/m3
166.4 kPa	1004.1 ± 1.2 kg/m3
166.8 kPa	1004.3 ± 1.2 kg/m3
166.9 kPa	1004.3 ± 1.2 kg/m3
167.5 kPa	1004.2 ± 1.2 kg/m3
168.2 kPa	1004.2 ± 1.2 kg/m3
169.7 kPa	1004.2 ± 1.2 kg/m3
173.5 kPa	1004.2 ± 1.2 kg/m3
174.1 kPa	1004.2 ± 1.2 kg/m3
174.8 kPa	1004.1 ± 1.2 kg/m3
175.1 kPa	1004.3 ± 1.2 kg/m3
175.4 kPa	1004.2 ± 1.2 kg/m3
177 kPa	1004.2 ± 1.2 kg/m3
177.9 kPa	1004.2 ± 1.2 kg/m3
178 kPa	1004.2 ± 1.2 kg/m3
178.4 kPa	1004.1 ± 1.2 kg/m3
178.9 kPa	1004.2 ± 1.2 kg/m3
179.4 kPa	1004.2 ± 1.2 kg/m3
179.6 kPa	1004.2 ± 1.2 kg/m3
179.8 kPa	1004.2 ± 1.2 kg/m3
180.3 kPa	1004.3 ± 1.2 kg/m3
181 kPa	1004.2 ± 1.2 kg/m3
181.4 kPa	1004.2 ± 1.2 kg/m3
181.9 kPa	1004.3 ± 1.2 kg/m3
182.2 kPa	1004.2 ± 1.2 kg/m3
182.9 kPa	1004.3 ± 1.2 kg/m3
184.1 kPa	1004.3 ± 1.2 kg/m3
185 kPa	1004.3 ± 1.2 kg/m3
185.3 kPa	1004.2 ± 1.2 kg/m3
185.7 kPa	1004.2 ± 1.2 kg/m3
186 kPa	1004.3 ± 1.2 kg/m3
186.4 kPa	1004.2 ± 1.2 kg/m3
187.1 kPa	1004.2 ± 1.2 kg/m3
187.6 kPa	1004.3 ± 1.2 kg/m3
188.3 kPa	1004.3 ± 1.2 kg/m3
188.6 kPa	1004.2 ± 1.2 kg/m3
188.8 kPa	1004.1 ± 1.2 kg/m3
189.2 kPa	1004.2 ± 1.2 kg/m3
189.5 kPa	1004.3 ± 1.2 kg/m3
189.9 kPa	1004.3 ± 1.2 kg/m3
190.2 kPa	1004.1 ± 1.2 kg/m3
190.5 kPa	1004.3 ± 1.2 kg/m3
190.7 kPa	1004.2 ± 1.2 kg/m3
191.4 kPa	1004.2 ± 1.2 kg/m3
191.9 kPa	1004.3 ± 1.2 kg/m3
192.3 kPa	1004.3 ± 1.2 kg/m3 and 1004.2 ± 1.2 kg/m3
192.6 kPa	1004.4 ± 1.2 kg/m3
192.8 kPa	1004.2 ± 1.2 kg/m3
193.1 kPa	1004.2 ± 1.2 kg/m3
193.3 kPa	1004.2 ± 1.2 kg/m3
193.8 kPa	1004.2 ± 1.2 kg/m3
194.4 kPa	1004.2 ± 1.2 kg/m3
194.7 kPa	1004.3 ± 1.2 kg/m3
195.1 kPa	1004.3 ± 1.2 kg/m3
195.2 kPa	1004.2 ± 1.2 kg/m3
195.8 kPa	1004.2 ± 1.2 kg/m3
195.9 kPa	1004.2 ± 1.2 kg/m3
196.3 kPa	1004.3 ± 1.2 kg/m3
196.8 kPa	1004.3 ± 1.2 kg/m3
197.1 kPa	1004.2 ± 1.2 kg/m3
197.3 kPa	1004.2 ± 1.2 kg/m3
197.5 kPa	1004.1 ± 1.2 kg/m3
197.8 kPa	1004.3 ± 1.2 kg/m3
198.2 kPa	1004.2 ± 1.2 kg/m3
198.7 kPa	1004.3 ± 1.2 kg/m3
198.9 kPa	1004.3 ± 1.2 kg/m3
199.2 kPa	1004.2 ± 1.2 kg/m3
199.6 kPa	1004.4 ± 1.2 kg/m3
200.3 kPa	1004.3 ± 1.2 kg/m3
200.8 kPa	1004.1 ± 1.2 kg/m3 and 1004.3 ± 1.2 kg/m3
201 kPa	1004.2 ± 1.2 kg/m3
201.5 kPa	1004.1 ± 1.2 kg/m3
202 kPa	1004.3 ± 1.2 kg/m3
202.2 kPa	1004.4 ± 1.2 kg/m3
202.5 kPa	1004.2 ± 1.2 kg/m3
202.7 kPa	1004.1 ± 1.2 kg/m3
203.2 kPa	1004.3 ± 1.2 kg/m3
204.1 kPa	1004.1 ± 1.2 kg/m3
204.3 kPa	1004.2 ± 1.2 kg/m3
204.6 kPa	1004.2 ± 1.2 kg/m3
205.1 kPa	1004.2 ± 1.2 kg/m3
205.7 kPa	1004.2 ± 1.2 kg/m3
205.8 kPa	1004.2 ± 1.2 kg/m3
206.5 kPa	1004.3 ± 1.2 kg/m3 and 1004.2 ± 1.2 kg/m3
207 kPa	1004.1 ± 1.2 kg/m3
208.6 kPa	1004.2 ± 1.2 kg/m3
208.8 kPa	1004.3 ± 1.2 kg/m3
209.3 kPa	1004.2 ± 1.2 kg/m3
209.6 kPa	1004.2 ± 1.2 kg/m3
210 kPa	1004.2 ± 1.2 kg/m3
210.5 kPa	1004.3 ± 1.3 kg/m3
211 kPa	1004.2 ± 1.2 kg/m3
211.6 kPa	1004.3 ± 1.2 kg/m3
212.1 kPa	1004.2 ± 1.2 kg/m3
212.4 kPa	1004.3 ± 1.2 kg/m3
212.8 kPa	1004.3 ± 1.2 kg/m3
212.9 kPa	1004.2 ± 1.2 kg/m3
213.5 kPa	1004.3 ± 1.2 kg/m3
213.8 kPa	1004.2 ± 1.2 kg/m3
214.5 kPa	1004.3 ± 1.2 kg/m3
215.2 kPa	1004.3 ± 1.2 kg/m3
215.7 kPa	1004.2 ± 1.2 kg/m3
216.2 kPa	1004.3 ± 1.2 kg/m3
216.8 kPa	1004.2 ± 1.2 kg/m3
217.5 kPa	1004.2 ± 1.2 kg/m3
219 kPa	1004.1 ± 1.2 kg/m3
219.4 kPa	1004.3 ± 1.2 kg/m3
